Data on eleven compounds can be found in PubChem BioAssay (NCI).

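How tested: cells in 96-well plates exposed to compound for 48 hours at five concentrations. The concentration for 50% growth inhibition is given as GI50. At the TGI there is no net growth.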

Test systems include A549 NSCLC; SF-539 CNS; OVCAR-5 ovarian; SF-268 CNS; OVCAR-3 ovarian; SK-OV-3 ovarian; U251 CNS; HL-60(TB) leukemia; SK-MEL-5 melanoma; K-562 leukemia.
Assay in all cases: NCI tumour cell line growth inhibition, 48 h

As to `O=C1/C(=C/c2ccc3c(c2)OCCO3)CCC/C1=C\c1ccc2c(c1)OCCO2`, the TGI in the experiment with A549 NSCLC was over 100 µM; with SF-539 CNS it was 38.6 µM; in the experiment with OVCAR-5 ovarian, over 100 µM; in the experiment with SF-268 CNS, over 100 µM; in the experiment with OVCAR-3 ovarian, 44.6 µM; in the experiment with SK-OV-3 ovarian it was over 100 µM. In addition, the results for the TGI in the experiment with U251 CNS, with HL-60(TB) leukemia and with SK-MEL-5 melanoma were 36.7 µM, 56.9 µM and 80 µM, respectively.
For `COc1ccc(/C(C)=N/NC(=O)CSc2nc3ccccc3c(=O)n2CCc2ccc(S(N)(=O)=O)cc2)cc1`, the GI50 in the experiment with A549 NSCLC was 2.1 µM; in the experiment on SF-539 CNS, 1.69 µM; with OVCAR-5 ovarian, 1.61 µM; in the experiment with OVCAR-3 ovarian, 1.99 µM; with HL-60(TB) leukemia it was 16.6 µM; in the experiment with K-562 leukemia it was 2.87 µM. Besides, the GI50 in the experiment with SK-MEL-5 melanoma was 1.64 µM. The TGI in the experiment with A549 NSCLC was 4 µM; in the experiment on SF-539 CNS, 3.16 µM; in the experiment on OVCAR-5 ovarian, 3.23 µM; with OVCAR-3 ovarian, 3.85 µM; in the experiment with HL-60(TB) leukemia it was over 100 µM; in the experiment with K-562 leukemia, over 100 µM. The TGI in the experiment on SK-MEL-5 melanoma is 3.06 µM.
For the compound `O=C1C(=C2CCCC2)CCC1CN1CCCCC1` (stereo not given), the TGI in the experiment on A549 NSCLC was over 100 µM; in the experiment with SF-539 CNS, 50.1 µM; with OVCAR-5 ovarian, 39.8 µM; with SF-268 CNS it was 37.5 µM; with OVCAR-3 ovarian it was 30.6 µM; with U251 CNS, over 100 µM. Besides, the values for the TGI with HL-60(TB) leukemia, in the experiment with K-562 leukemia and in the experiment with SK-MEL-5 melanoma were 21.9 µM, 47.1 µM and 34.1 µM, respectively.
`O=c1c2ccccc2[nH]c2c(O)ccc(O)c12`: the TGI in the experiment with A549 NSCLC was over 100 µM; in the experiment on SF-539 CNS it was 75.3 µM; in the experiment on OVCAR-5 ovarian it was over 100 µM; in the experiment on SF-268 CNS, 76.5 µM; with OVCAR-3 ovarian, 36.1 µM; in the experiment with SK-OV-3 ovarian it was 65.9 µM. The TGI in the experiment on U251 CNS was found to be 21.6 µM; in the experiment with HL-60(TB) leukemia it was 10.2 µM; in the experiment with K-562 leukemia, 56.3 µM.
For the compound `Nc1c(C(=O)Nc2ccccn2)sc2nc3c(cc12)C(O)CCC3` (stereo not given), the GI50 was 2.6 µM in the experiment with A549 NSCLC; 1.47 µM with SF-539 CNS; 2.54 µM with OVCAR-5 ovarian; 2.94 µM in the experiment on SF-268 CNS; 1.35 µM in the experiment on OVCAR-3 ovarian; 1.87 µM with U251 CNS. Moreover, the GI50 with HL-60(TB) leukemia is 0.562 µM; in the experiment with K-562 leukemia it was 0.319 µM; with SK-MEL-5 melanoma it was 1.47 µM. Further, the TGI is over 50 µM in the experiment with A549 NSCLC; over 50 µM in the experiment with SF-539 CNS; over 50 µM in the experiment with OVCAR-5 ovarian; over 50 µM with SF-268 CNS; 4.11 µM with OVCAR-3 ovarian; over 50 µM with U251 CNS. Moreover, the TGI with HL-60(TB) leukemia, in the experiment on K-562 leukemia and with SK-MEL-5 melanoma was over 50 µM in each case.
As to `[N-]=[N+]=NCCCn1c2c(c3ccc([N+](=O)[O-])cc3c1=O)C(=O)c1cc3c(cc1-2)OCO3`, the GI50 in the experiment with A549 NSCLC is under 0.0388 µM; in the experiment with SF-539 CNS, under 0.0171 µM; with OVCAR-5 ovarian it was 0.215 µM; in the experiment with SK-OV-3 ovarian, 0.7 µM; in the experiment with U251 CNS, under 0.0174 µM; with HL-60(TB) leukemia, under 0.0281 µM. In addition, the GI50 in the experiment with SK-MEL-5 melanoma is under 0.0317 µM. Further, the TGI with A549 NSCLC was 2.87 µM; with SF-539 CNS it was under 0.0363 µM; in the experiment on OVCAR-5 ovarian, 2.1 µM; with OVCAR-3 ovarian, 2.87 µM; in the experiment on SK-OV-3 ovarian, over 100 µM; with U251 CNS, 1.04 µM. Also, the TGI in the experiment on HL-60(TB) leukemia was over 100 µM; in the experiment on K-562 leukemia, over 100 µM; with SK-MEL-5 melanoma, 0.196 µM.
Take `CCc1cccc(C(C)C)c1NC(=O)CCl`: the TGI with A549 NSCLC, in the experiment with SF-539 CNS, in the experiment with SF-268 CNS, with OVCAR-3 ovarian, in the experiment on SK-OV-3 ovarian and with U251 CNS was over 100 µM in each case. Moreover, the TGI with HL-60(TB) leukemia was 70.8 µM; in the experiment with K-562 leukemia it was over 100 µM.
Regarding `CC1=C(C(=O)NCc2ccccc2)C(c2ccc(Cl)c(Cl)c2)C(C(=O)NCc2ccccc2)=C(C)N1`, the TGI in the experiment with A549 NSCLC, with SF-539 CNS, in the experiment with OVCAR-5 ovarian, with SF-268 CNS, in the experiment with OVCAR-3 ovarian and in the experiment on U251 CNS was over 100 µM in each case. The TGI in the experiment on HL-60(TB) leukemia, in the experiment on K-562 leukemia and with SK-MEL-5 melanoma was over 100 µM in each case.
As for `N#Cc1cnc2cc(OC[C@@H](O)CO)c(NC(=O)C3CCCC3)cc2c1Nc1ccc(OCc2cccc(F)c2)c(Cl)c1`, the GI50 was 6.74 µM in the experiment with A549 NSCLC; 1.15 µM in the experiment with SF-539 CNS; 7.69 µM with OVCAR-5 ovarian; 1.37 µM with SF-268 CNS; 0.874 µM with OVCAR-3 ovarian; 3.23 µM in the experiment with SK-OV-3 ovarian. Also, the GI50 in the experiment on U251 CNS is 6.79 µM; in the experiment on HL-60(TB) leukemia it was 0.789 µM; in the experiment with SK-MEL-5 melanoma, 7.72 µM. Also, the TGI was determined as 14.9 µM in the experiment with A549 NSCLC; 2.93 µM with SF-539 CNS; 17.2 µM in the experiment on OVCAR-5 ovarian; 5.98 µM in the experiment with SF-268 CNS; 1.82 µM in the experiment with OVCAR-3 ovarian; 11.5 µM in the experiment on SK-OV-3 ovarian. The TGI amounted to 15.6 µM in the experiment on U251 CNS, 2.76 µM in the experiment on HL-60(TB) leukemia and 17.5 µM in the experiment with SK-MEL-5 melanoma.
Turning to `CC(C)(C)OC(=O)NCCCCn1c2c(c3ccccc3c1=O)C(=O)c1ccccc1-2`, the GI50 in the experiment on A549 NSCLC is 17.6 µM; in the experiment on SF-539 CNS it was 25.9 µM; in the experiment with OVCAR-5 ovarian it was 44.7 µM; in the experiment on SF-268 CNS, 20.9 µM; in the experiment with OVCAR-3 ovarian it was 5.42 µM; with SK-OV-3 ovarian, 50.2 µM. The GI50 in the experiment on U251 CNS was 15.9 µM; in the experiment on HL-60(TB) leukemia it was 4.71 µM; in the experiment on K-562 leukemia, 24.8 µM. Moreover, the TGI in the experiment on A549 NSCLC is 44.5 µM; in the experiment with SF-539 CNS, 62.8 µM; with OVCAR-5 ovarian, over 100 µM; in the experiment with SF-268 CNS, over 100 µM; in the experiment with OVCAR-3 ovarian, 23.3 µM; in the experiment on SK-OV-3 ovarian, over 100 µM. Moreover, the TGI in the experiment with U251 CNS was 37.6 µM; in the experiment with HL-60(TB) leukemia it was 59.4 µM; in the experiment with K-562 leukemia it was over 100 µM.
Regarding `O=c1[nH]c2cc([N+](=O)[O-])ccc2nc1/C(=N/Nc1ccccc1)C(O)c1ccco1` (stereo not given), the TGI with A549 NSCLC, in the experiment with SF-539 CNS, in the experiment with SF-268 CNS, in the experiment with U251 CNS, in the experiment with HL-60(TB) leukemia and in the experiment with K-562 leukemia was over 100 µM throughout. This compound registered a TGI in the experiment with SK-MEL-5 melanoma of over 100 µM.
